According to US9155715B2, “Transdermal composition comprising tolterodine” (SK Chemicals Co., Ltd., priority 2009, dated 2015):

Assays:
Type in all cases: physicochemical
[1] = Screening of antioxidant (tolterodine decomposition in H2O2 solution); details: 25° C., 100 rpm, 2.5 days
Method: (§1) [Analytical Method] • Test solution: tolterodine (−0.5 mg/mL) • Mobile phase: 45:55 mixture solution of ammonium dihydrogen phosphate and methanol, pH 7.0 • HPLC condition: detector 220 nm, column ODS3 C-18
Tolterodine free base (500 mg) was mixed with ethanol (50 mL) in a 100 mL flask and 0.3% H2O2 solution was added thereto to a final volume of 100 mL.
Antioxidant, weighed 10 mg each, was added into two glass bottles. One bottle contained tolterodine and the antioxidant, while the other bottle contained only the antioxidant, which was prepared to exclude the peaks resulting from the decomposition of the antioxidant by H2O2.
Tolterodine solution (2 mL) or a 1:1 mixture solution of 0.3% H2O2 aqueous solution and ethanol (2 mL) were added to the two glass bottles containing the antioxidant. The bottles were agitated at 100 rpm and 25° C. for 2.5 days.

[2] = Stress decomposition test of tolterodine under acidic/basic/oxidizing conditions; details: for Total decomposed substances (peak area ratio of decomposed substances of tolterodine): 24 hours, HPLC
Method: Tolterodine free base (20 mg) was added respectively to three 100 mL flasks. Each of the above flasks was then added with 0.1 M HCl (5 mL), 0.1 M NaOH (5 mL) and 0.3% H2O2 solution (5 mL), respectively, added with methanol to a final volume of 20 mL and was subjected to ultrasonic extraction for 10 minutes.
Each sample was allowed to stand at room temperature for 24 hours and decomposed substances of tolterodine were quantitated by HPLC as follows.
as §1

[3] = Stress decomposition test of tolterodine under heat conditions
Method: as §1
Tolterodine free base (25-30 mg) was weighed and added into four glass bottles which were then capped with plugs. Three of the glass bottles were placed in an oven preheated at 120° C. At 10 minutes, 20 minutes and 30 minutes, each glass bottle was taken out from the oven and was allowed to cool enough at room temperature. After adding methanol (100 mL) to the four glass bottles followed by ultrasonic extraction for 10 minutes, decomposed substances of tolterodine were quantitated by HPLC as in Reference Example 1.

[4] = tolterodine in ethanol/0.3% H2O2 with 10 mg of the named antioxidant

| Structure (SMILES) | Total decomposed substances (peak area ratio of decomposed substances of tolterodine) [1, 4] [%] | further results |
| --- | --- | --- |
| COc1ccc(O)c(C(C)(C)C)c1 [Butylated hydroxyanisole (BHA), Butylated hydroxyanisole] | 23.87 |  |
| O=C([O-])CN(CCN(CC(=O)[O-])CC(=O)[O-])CC(=O)[O-].[Ca+2].[Na+].[Na+] [Ethylenediaminetetraacetic acid calcium disodium salt] | 29.69 |  |
| O=S([O-])[O-].[Na+].[Na+] [Sodium sulfite] | 5.67 |  |
| O=S([O-])([O-])=S.[Na+].[Na+] [Sodium thiosulfate] | 1.94 |  |
| Cl.N[C@@H](CS)C(=O)O [l-Cysteine HCl] |  | Total decomposed substances (peak area ratio of decomposed substances of tolterodine) ([1]; tolterodine in ethanol/0.3% H2O2 with 10 mg of the named antioxidant, HCl): 1.70% |
| N[C@@H](CCC(=O)O)C(=O)O [l-Glutamic acid] | 1.52 |  |
| O=C(O)C(O)C(O)C(=O)O (stereo not drawn) [l-Tartaric acid] | 1.44 |  |
| Cc1ccc(O)c([C@H](CCN(C(C)C)C(C)C)c2ccccc2)c1 [tolterodine] |  | Total decomposed substances (peak area ratio of decomposed substances of tolterodine) ([2]; 0.1M HCl, room temperature): 0.59%; Total decomposed substances (peak area ratio of decomposed substances of tolterodine) ([2]; 0.1M NaOH, room temperature): 0.83%; Total decomposed substances (peak area ratio of decomposed substances of tolterodine) ([2]; 0.3% H2O2, room temperature): 4.74%; Production of decomposed substances of tolterodine under stress conditions (in words) ([2]; harsh oxidizing condition, compared with acid, base and heat): Much of decomposed substances of tolterodine were produced; Total decomposed substances (peak area ratio of decomposed substances of tolterodine) ([1]; tolterodine in ethanol/0.3% H2O2, antioxidant: None): 26.08%; Total decomposed substances (peak area ratio of decomposed substances of tolterodine) ([3]; 120° C./0 min): 0.45%; Total decomposed substances (peak area ratio of decomposed substances of tolterodine) ([3]; 120° C./10 min): 0.59%; Total decomposed substances (peak area ratio of decomposed substances of tolterodine) ([3]; 120° C./20 min): 0.63%; Total decomposed substances (peak area ratio of decomposed substances of tolterodine) ([3]; 120° C./30 min): 0.78% |

Continued, in another order:

| Total decomposed substances (peak area ratio of decomposed substances of tolterodine) [1, 4] [%] | Structure (SMILES) | further results |
| --- | --- | --- |
| 1.39 | O=C(O)CC(O)C(=O)O (racemic) [d,l-Malic acid] |  |
| 23.56 | CC(=O)Oc1c(C)c(C)c2c(c1C)CC[C@@](C)(CCC[C@H](C)CCC[C@H](C)CCCC(C)C)O2 [(+)-α-Tocopherol acetate] |  |
| 18.82 | Cc1cc(C(C)(C)C)c(O)c(C(C)(C)C)c1 [Butylated hydroxytoluene (BHT), Butylated hydroxytoluene] |  |
| 1.46 | O=C(O)CC(O)(CC(=O)O)C(=O)O [Citric acid] |  |
| 13.00 | CCOC(=O)c1cc(O)c(O)c(O)c1 [Ethyl gallate] |  |
| 19.94 | CCCCCCCCCCCCOC(=O)c1cc(O)c(O)c(O)c1 [Lauryl gallate] |  |
| 20.29 | Cc1c(C)c2c(c(C)c1O)CCC(C)(CCCC(C)CCCC(C)CCCC(C)C)O2 (stereo not drawn) [d,l-α-Tocopherol] |  |
| 1.94 | CCCCCCCCCCCCCCCC(=O)OC[C@H](O)[C@H]1OC(=O)C(O)=C1O [l-Ascorbic acid 6-palmitate] |  |
| 1.21 | O=C1O[C@H]([C@@H](O)CO)C(O)=C1O [l-Ascorbic acid] |  |
| 15.97 | CCCCCCCCOC(=O)c1cc(O)c(O)c(O)c1 [n-Octyl gallate] |  |
